# From US5221606A, “Reagent and kit for enzyme assay comprising a substrate consonant with given enzyme to be assayed” (King's College London, priority 1987, dated 1993)
# Counter-ions that a name gives are not always drawn.
# What was measured:
# carboxyesterase = test: substrate test with carboxyesterase; assay type: biochemical
# Experimental: The serum samples were diluted by a factor of 10 prior to the assay. The substrate solution and the diluted sera were then preincubated at 37° C. in a water bath. Aliquots (0.75 ml) of the substrate solution were then pipetted into small plastic tubes (2 ml capacity), and 0.05 ml samples of the sera were added to each of the substrate aliquots and shaken vigorously to ensure adequate mixing. A blank was run by substituting water (0.05 ml) for the serum. The reaction was stopped after 10 min by the addition of the stopping buffer (0.25 ml) [prepared by dissolving DABCO (22.4 g) in water (200 ml) and adjusting the pH to 10 by the addition of a little conc. hydrochloric acid. The resulting mixture was then made up to 1000 ml with acetone]. […] [formula] where t=time of incubation in hours
# Otherwise it was carried out in exactly the same ways as above
# [1] = solubility in water or aqueous buffer
# E. Coli β-galactosidase = E. Coli β-galactosidase (Escherichia coli, UniProt P00722); test: substrate test with β-galactosidase; assay type: biochemical
# alkaline phosphatase = test: substrate test with alkaline phosphatase; assay type: biochemical
# [2] = E. coli β-galactosidase, unit inferred
# Chain of E. Coli β-galactosidase (P00722 2-1024): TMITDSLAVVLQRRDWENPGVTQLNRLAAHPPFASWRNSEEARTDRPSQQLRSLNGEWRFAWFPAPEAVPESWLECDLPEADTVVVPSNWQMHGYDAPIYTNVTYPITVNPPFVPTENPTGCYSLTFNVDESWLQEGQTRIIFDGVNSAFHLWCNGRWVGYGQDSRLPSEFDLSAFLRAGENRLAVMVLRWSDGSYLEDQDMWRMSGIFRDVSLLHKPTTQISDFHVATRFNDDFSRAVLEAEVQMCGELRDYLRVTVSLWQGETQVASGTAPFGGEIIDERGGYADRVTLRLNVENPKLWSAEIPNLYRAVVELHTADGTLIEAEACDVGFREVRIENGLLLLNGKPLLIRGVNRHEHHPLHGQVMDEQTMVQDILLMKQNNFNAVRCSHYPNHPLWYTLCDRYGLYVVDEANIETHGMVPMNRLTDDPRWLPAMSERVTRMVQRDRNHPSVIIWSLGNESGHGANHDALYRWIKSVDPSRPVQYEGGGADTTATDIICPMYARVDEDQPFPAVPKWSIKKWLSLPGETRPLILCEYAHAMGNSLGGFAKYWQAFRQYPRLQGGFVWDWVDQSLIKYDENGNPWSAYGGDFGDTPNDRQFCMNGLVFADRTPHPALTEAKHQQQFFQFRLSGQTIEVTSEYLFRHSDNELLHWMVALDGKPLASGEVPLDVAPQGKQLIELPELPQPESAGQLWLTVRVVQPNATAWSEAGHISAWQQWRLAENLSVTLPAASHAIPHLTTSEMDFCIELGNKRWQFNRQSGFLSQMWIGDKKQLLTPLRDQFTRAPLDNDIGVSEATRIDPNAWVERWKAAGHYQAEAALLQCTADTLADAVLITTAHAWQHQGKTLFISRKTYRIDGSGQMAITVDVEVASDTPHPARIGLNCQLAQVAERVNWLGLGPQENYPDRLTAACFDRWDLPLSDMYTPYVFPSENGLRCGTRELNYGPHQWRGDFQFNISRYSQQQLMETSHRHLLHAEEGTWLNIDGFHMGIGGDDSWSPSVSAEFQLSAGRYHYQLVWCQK
compound,measurement,setting,value
2-[2-(4-Benzoyloxy-3-methoxyphenyl)-vinyl-1-methylquinolinium iodide [21e],quality as substrate for / cleavage by carboxyesterase,carboxyesterase,readily cleaved
"CCC(=O)Oc1ccc(C=C2SC(=S)NC2=O)cc1OC [3d, n=1, 5-(4-propanoyloxy-3-methoxyphenylmethylene)-2-thioxothiazolidin-4-one]",quality as substrate for / cleavage by carboxyesterase,carboxyesterase,cleaved by carboxyesterase
same,solubility in water,[1],slightly soluble in water
"COc1cc(C=C2SC(=S)N(CC(=O)O)C2=O)ccc1O[C@@H]1O[C@H](CO)[C@H](O)[C@H](O)[C@H]1O [4c, Ammonium 5-[4-(β-D-galactopyranosyloxy)-3-methoxyphenyl-methylene]-2-thioxothiazolidin-4-one-3-ethanoate]",quality as substrate for E. Coli β-galactosidase,E. Coli β-galactosidase,very good substrate
same,solubility in water,[1],easily soluble in water
"COc1cc(C=C2SC(=S)N(C)C2=O)ccc1OP(=O)(O)O [9F, 5-(4-Phosphoroyloxy-3-methoxyphenylmethylene)-2-thioxo-3-methylthiazolidine-4-one]",quality as substrate for / hydrolysis by alkaline phosphatase,alkaline phosphatase,hydrolysed readily
same,solubility in water,[1],very soluble in water
COc1cc(C=C2SC(=S)N(CC(=O)O)C2=O)cc(OC)c1OC(=O)c1ccccc1 [11e],quality as substrate for / cleavage by carboxyesterase,carboxyesterase,excellent substrate
"CCC(=O)Oc1c(OC)cc(C=C2SC(=S)N(c3ccc(C(=O)O)cc3)C2=O)cc1OC [13d, n=1, 3-(4-carboxyphenyl)-5-(3,5-dimethoxy-4-propanoyloxyphenylmethylene)-2-thioxothiazolidin-4-one]",quality as substrate for / cleavage by carboxyesterase,carboxyesterase,reacted with carboxyesterase
"COc1cc(C=C2SC(=S)N(c3ccc(S(=O)(=O)O)cc3)C2=O)cc(OC)c1OC(=O)c1ccccc1 [14e, Potassium 5-(4-benzoyloxy-3,5-dimethoxyphenylmethylene) -2-thioxothiazolidin-4-one-3-(phenyl-4-sulphonate)]",quality as substrate for / cleavage by carboxyesterase,carboxyesterase,hydrolysed by carboxyesterase
"COc1cc(N2C(=O)C(=Cc3cc(OC)c(OP(=O)(O)O)c(OC)c3)SC2=S)cc(OC)c1OC [15f, 2-Thioxo-3-(3,4,5-trimethoxyphenyl)-5-(3,5-dimethoxy-4-phosphoroyloxyphenylmethylene)-thiazolidin-4-one]",quality as substrate for / hydrolysis by alkaline phosphatase,alkaline phosphatase,hydrolysed by alkaline phosphatase
same,solubility in alkaline buffers,[1]; alkaline buffers (pH 8 etc.),moderately soluble
"COc1cc(C=C2SC(=S)N(C)C2=O)cc(OC)c1OP(=O)(O)O [16f, 5-(4-Phosphoroyloxy-3,5-dimethoxyphenylmethylene)-2-thioxo-3-methylthiazolidine-4-one]",Km,alkaline phosphatase; phosphatase,330 µM
COc1cc(/C=C/c2cc[n+](C)cc2)ccc1O[C@@H]1O[C@H](CO)[C@H](O)[C@H](O)[C@H]1O [19c],quality as substrate for E. Coli β-galactosidase,E. Coli β-galactosidase,substrate
same,solubility in water,[1],fair solubility
"COc1cc(/C=C/c2ccc3ccccc3[n+]2C)ccc1O[C@@H]1O[C@H](CO)[C@H](O)[C@H](O)[C@H]1O [21c, 2-{2-[4-(β-D-Galactopyranosyloxy)-3-methoxyphenyl]-vinyl}-1-methylquinolinium iodide]",quality as substrate for E. Coli β-galactosidase,E. Coli β-galactosidase,excellent substrate
same,Km,E. Coli β-galactosidase; [2],~200 µM
same,% of vmax achieved,E. Coli β-galactosidase; at a concentration of 0.5 mM,90%
same,solubility in water,[1],very good water solubility
"COc1cc(/C=C/c2ccc3ccccc3[n+]2C)cc(OC)c1O[C@@H]1O[C@H](CO)[C@H](O)[C@H](O)[C@H]1O [22c, 2-{2-[4-(β-D-Galactopyranosyloxy)-3,5-dimethoxyphenyl]-vinyl}-1-methylquinolinium iodide]",quality as substrate for E. Coli β-galactosidase,E. Coli β-galactosidase,good a substrate
same,solubility in water,[1],easily soluble in water
"COc1cc(/C=C/c2ccc3ccccc3[n+]2C)cc(OC)c1OP(=O)(O)O [22f, 2-[2-(4-phosphoroyloxy-3,5-dimethoxyphenyl)-vinyl]-1-methylquinolinium iodide]",quality as substrate for / hydrolysis by alkaline phosphatase,alkaline phosphatase,good substrate
same,% of vmax achieved,alkaline phosphatase; at a concentration of 0.5 mM,42%
same,Km,alkaline phosphatase; phosphatase,680 µM
same,solubility in water,[1],very soluble in water
"COc1cc(/C=C/c2cc[n+](C)c3ccccc23)ccc1O[C@@H]1O[C@H](CO)[C@H](O)[C@H](O)[C@H]1O [23c, 4-{2-[4-(β-D-Galactopyranosyloxy)-3-methoxyphenyl]-vinyl}-1-methylquinolinium iodide]",quality as substrate for E. Coli β-galactosidase,E. Coli β-galactosidase,excellent substrate
same,Km,E. Coli β-galactosidase; [2],62 µM
same,% of vmax achieved,E. Coli β-galactosidase; at a concentration of 0.5 mM,95%
same,substrate inhibition,E. Coli β-galactosidase; at concentrations higher than 0.5 mM,slight substrate inhibition
same,solubility in water,[1],good water solubility
"COc1cc(/C=C/c2cc[n+](C)c3ccccc23)cc(OC)c1O[C@@H]1O[C@H](CO)[C@H](O)[C@H](O)[C@H]1O [24c, 4-{2-[4-(β-D-Galactopyranosyloxy)-3,5-dimethoxyphenyl]-vinyl}-1-methylquinolinium iodide]",quality as substrate for E. Coli β-galactosidase,E. Coli β-galactosidase,good a substrate
same,solubility in water,[1],easily soluble in water
"CCC[n+]1ccc(/C=C/c2cc(OC)c(OP(=O)([O-])O)c(OC)c2)c2ccccc21 [25f, 4-[2-(4-Phosphoroyloxy-3,5-dimethoxyphenyl)-vinyl]-1-propylquinolinium]",quality as substrate for / hydrolysis by alkaline phosphatase,alkaline phosphatase,excellent substrate
same,Km,"alkaline phosphatase; alkaline phosphatase, unit inferred",176 µM
same,% of vmax achieved,alkaline phosphatase; at a concentration of 1 mM,86%
same,solubility in water,[1],water soluble
"COc1cc(/C=C/c2sc3ccccc3[n+]2C)ccc1O[C@@H]1O[C@H](CO)[C@H](O)[C@H](O)[C@H]1O [26c, 2-{2-[4-(β-D-Galactopyranosyloxy)-3-methoxyphenyl]-vinyl}-3-methylbenzothiazolium tosylate]",concentration above which substrate inhibition starts to show,E. Coli β-galactosidase,above 0.7 mM
same,pH optimum,E. Coli β-galactosidase,6.5
same,quality as substrate for E. Coli β-galactosidase,E. Coli β-galactosidase,reacted to give an intense violet-red solution
same,% of vmax achieved,E. Coli β-galactosidase; at a concentration of 1 mM,95%
same,Km,E. Coli β-galactosidase; β-D-galactosidase from E. Coli,230 µM
same,solubility in water,[1],very soluble in water
CCN1C(=O)C(=Cc2ccc(OP(=O)(O)O)c(OC)c2)C(=O)N(CC)C1=S [27f],quality as substrate for / hydrolysis by alkaline phosphatase,alkaline phosphatase,cleaved by alkaline phosphatase
same,solubility in water,[1],good solubility
"COc1cc(C=C2C(=O)N(c3ccc(S(=O)(=O)O)cc3)N=C2C)cc(OC)c1OC(=O)c1ccccc1 [29e, Potassium 1-(benzene-4-sulfonate)-4-(4-Benzolyloxy-3,5-dimethoxyphenylmethylene)-3-methyl-5-pyrazalone]",quality as substrate for / cleavage by carboxyesterase,carboxyesterase,substrate for carboxyesterase
"COc1cc(C=CC=C2SC(=S)N(CC(=O)O)C2=O)ccc1OC(C)=O [compound 30, Piperidinium 5-[3-(4'-ethanoyloxy-3'-methoxyphenyl)-prop-2-enylidene]-2-thioxothiazolidin-4-one-3-ethanoate]",quality as substrate for / cleavage by carboxyesterase,carboxyesterase,hydrolysed
